From US20240374581A1, “SALT TYPES OF TRICYCLIC TETRAHYDRO ISOQUINOLINE DERIVATIVE” (JIANGSU HENGRUI PHARMACEUTICALS CO., LTD., priority 2021, published 2024)

Key:
CYP3A4 [1] = target: T1, CYP3A4 (Homo sapiens (Human), UniProt P08684); test: Inhibition of site of metabolism of testosterone in human liver microsome CYP3A4; format: in vitro ADME; conditions: 30 min
Experimental: (§1) • 1. Phosphate buffer (20×PBS, purchased from Sangon); • 2. NADPH (ACROS, A2646-71-1); • 3. Human liver microsome (Corning Gentest, Cat No. 452161, Lot No. 905002, Donor36); • 4. ABI QTrap 4000 LC-MS System (AB Sciex); • 5. ZORBAX Extend-C18, 3×50 mm, 3.5 m (Agilent, USA); • 6. CYP probe substrate (testosterone, Vocko, CAS No. [58-22-0]/75 μM) and positive control inhibitor (ketoconazole, SIGMA, Cat No. K1003-100MG).
A 100 mM PBS buffer was prepared. A 0.25 mg/mL microsome solution, a 7.5 mM MgCl2 and a 5 mM NADPH solution were prepared using the buffer. A30 mM stock solution was diluted with DMSO to obtain 30 mM, 10 mM, 3 mM, 1 mM, 0.3 mM, 0.03 mM, 0.003 mM and 0 mM serial solutions I, which were further diluted 200-fold with phosphate buffer (PBS) to obtain serial test solutions II (150, 50, 15, 5, 1.5, 0.15, 0.015 and 0 μM). A testosterone working solution was diluted with PBS to 375 μM. 40 μL of a 0.25 mg/mL microsome solution prepared in 7.5 mM MgCl2 and 20 μL of each of the 375 μM testosterone working solution and the compound working solutions (150, 50, 15, 5, 1.5, 0.15, 0.015 and 0 μM) were measured out and well mixed. […]
The IC50 value of the drug for the site of metabolism of testosterone in CYP3A4 was calculated by Graphpad Prism and is shown in Table 6.

CYP3A4 [2] = target: T1, CYP3A4; test: Time-dependent inhibition of site of metabolism of testosterone in human liver microsome CYP3A4; format: in vitro ADME; conditions: for IC50: testosterone site
Experimental: as §1, with “(verapamil, Adamas Reagent Co., Ltd,” for “(ketoconazole, SIGMA,”, “25904A).” for “K1003-100MG).”
A 100 mM PBS buffer was prepared. A 0.25 mg/mL microsome solution, a 7.5 mM MgCl2 and a 5 mM NADPH solution were prepared using the buffer. A 30 mM stock solution was diluted with DMSO to obtain 30 mM, 10 mM, 3 mM, 1 mM, 0.3 mM, 0.1 mM, 0.03 mM and 0 mM serial solutions I, which were further diluted 200-fold with phosphate buffer (PBS) to obtain serial test solutions II (150, 50, 15, 5, 1.5, 0.5, 0.15 and 0 μM). A midazolam working solution was diluted with PBS to 15 μM.
The serial test solutions prepared above were well mixed by shaking and aliquoted in 20 μL portions into corresponding reaction plates (+NADPH, TO and -NADPH groups were set). Three parallel tests were set. 40 μL of the liver microsome working solution was added to each 96-well plate. 20 μL of a corresponding substrate solution was added to the TO plate. 20 μL of NADPH was added to the TO plate and +NADPH group. A timer was started, and the plates were incubated in a water bath at 37° C. After 30 min of incubation, the TO plate was taken out, and the reaction was terminated with 250 μL of an internal standard-containing ACN solution. The +NADPH group was supplemented with 20 μL of the corresponding substrate solution, and the −NADPH group was supplemented with 20 μL of the corresponding substrate solution and 20 μL of NADPH. A timer was started, and the plates were incubated in a water bath at 37° C. After 30 min of incubation, the plates were taken out, and the reactions were terminated with 250 μL of an internal standard-containing ACN solution. […]
The IC50 value of the drug for the site of metabolism of testosterone in CYP3A4 was calculated by Graphpad Prism and is shown in Table 8.

T1 sequence (P08684 whole entry): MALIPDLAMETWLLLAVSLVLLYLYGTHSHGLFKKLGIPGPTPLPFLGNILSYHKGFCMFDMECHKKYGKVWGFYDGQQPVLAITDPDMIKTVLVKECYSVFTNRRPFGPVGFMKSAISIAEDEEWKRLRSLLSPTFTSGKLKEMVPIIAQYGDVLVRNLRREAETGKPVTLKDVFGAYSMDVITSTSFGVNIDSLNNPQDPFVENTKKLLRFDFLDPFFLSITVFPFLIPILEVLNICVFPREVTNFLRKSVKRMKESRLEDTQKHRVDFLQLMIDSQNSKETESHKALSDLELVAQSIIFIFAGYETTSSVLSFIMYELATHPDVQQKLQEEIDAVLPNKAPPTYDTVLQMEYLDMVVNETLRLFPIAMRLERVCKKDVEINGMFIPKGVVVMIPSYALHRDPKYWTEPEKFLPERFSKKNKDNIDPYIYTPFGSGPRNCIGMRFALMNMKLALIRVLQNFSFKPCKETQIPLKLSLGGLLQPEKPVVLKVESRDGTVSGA

## [2H]C1([2H])Oc2cc3c(cc2O1)[C@@H](c1ccc(NC2CN(CCCF)C2)cn1)N(CC(F)(F)CO)[C@H](C)C3 [Compound 1, 2,2-Difluoro-3-((5S,7R)-5-(5-((1-(3-fluoropropyl)azetidin-3-yl)amino)pyridin-2-yl)-7-methyl-7,8-dihydro-[1,3]dioxolo[4,5-g]isoquinolin-6(5H)-yl-2,2-d2)propan-1-ol]
CYP3A4 [1]
  IC50: > 30 µM
CYP3A4 [2]; microsomes
  IC50 Shift: No TDI
CYP3A4 [2]; pre-incubation with NADPH 30 min
  IC50: > 30 µM
CYP3A4 [2]; pre-incubation without NADPH
  IC50: > 30 µM
